According to US20260097111A1, “ETHER LIPIDS FOR HYPERACTIVATION OF MAMMALIAN DENDRITIC CELLS” (priority 2022, published 2026):
Entries after “also recorded” stand apart in the source; their conditions may differ.

Test system: human monocyte-derived dendritic cells (moDCs)
Test: IL-1β secretion by human moDCs treated with lipid and R848
Type: cell-based
Conditions: for IL-1β secretion / IL-1β secretion, dependence on the NLRP3 inflammasome: human moDCs; for IL-1β secretion, dependence on the NLRP3 inflammasome: R848 + lipid with or without MCC950, one day, FIG. 3B

Question: Which “hyperactivation of human dendritic cells” value (41.25 μM lipid with R848 (Compound 1 also 20.6 μM)) does the source give for `CCCCCCCCCCCCCCCCCCCCCCOC[C@@H](O)COP(=O)(O)O` [Compound 2, 1-docosyl-sn-glycerol-3-phosphate] here?
Answer: hyperactivating lipids; also recorded: hyperactivated dendritic cells

Question: And the IL-1β secretion (41.25 μM lipid with R848, FIG. 17)?
Answer: significant increase in IL-1β

Question: What about the IL-1β secretion (41.3 uM lipid with R848, FIG. 11) of the same compound?
Answer: robustly induced IL-113 secretion

Question: What about the IL-1β secretion (24 hours, lipid (equimolar, in 0.5% KP407) with R848, FIG. 1B, listed as DGP) of the same compound?
Answer: IL-1β was secreted to a greater extent than 22:0 lyso PC; also recorded: more potent hyperactivator compared to DGPC (Compound 1) and 22:0 lyso PC

Question: And the IL-1β secretion (24 hours, lipid in 4% KP407 with R848, FIG. 2B)?
Answer: produced significantly more IL-1β

Question: What about the “IL-1β secretion, dependence on the NLRP3 inflammasome” value of the same compound?
Answer: depend on the NLRP3 inflammasome for IL-1β secretion

Question: Which “IL-1β secretion, dependence on the NLRP3 inflammasome” value does the source give for `CC(C)(O)c1coc(S(=O)(=O)NC(=O)Nc2c3c(cc4c2CCC4)CCC3)c1` [MCC950, reference compound] here?
Answer: diminished the IL-1β output
